Measurements reported in ChEMBL document CHEMBL1201862, “PubChem BioAssay data set” (2004).
Calls of active or inactive are those of the source.

How the values were obtained:
Beta-galactosidase = Beta-galactosidase (Escherichia coli, UniProt Q8VNN2); assay: Dose response counterscreen for EBI2 assay utilizing the enzyme, b-galactosidase.; type: functional
[1] = blockers of HIV-1 ZM109 envelope-driven cell-cell fusion – HeLa effector, CEM target cells, luciferase, cherry-pick, dose response (AID 652058); type: functional, cell-based;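 further: luciferase signal from HIV-1 Env mediated cell-cell fusion of effector and target cells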
[2] = off-target signal loss in HeLa-CEM21 co-culture – HeLa F-luc CTL cells, cherry-picked, counter-screen for HIV-1 Env fusion inhibitor project, dose response (AID 652040); type: functional, cell-based;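 further: potency for signal decrease marking cytotoxic or nonspecific inhibition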
[3] = blockers of HIV-1 envelope-mediated cell-cell fusion – cherry-pick, dose response (AID 652057); type: functional, cell-based
[4] = HIV-1 AD8 envelope cell-cell fusion blockers – cherry-pick, dose response (AID 652062); type: functional, cell-based;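 further: luciferase signal from cell-cell fusion driven by HIV-1 clade B AD8 Env; potency is for inhibitors of fusion seen as a drop in luminescence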
[5] = viability loss in CEM21 cells – cell-based, CellTiter-Glo luminescence, cherry-picked, cytotoxicity control for viral fusion inhibitor project, dose response (AID 652042); type: functional;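 further: potency for signal decrease meaning cytotoxicity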
[6] = blockers of CRF-binding protein–CRF-R2 complex – cell-based, uHTS hits, 384-well, dose response (AID 651639); type: functional, Homo sapiens; conditions: read-out: IC50_Mean
[7] = target: T1, Corticotropin-releasing factor receptor 2/Corticotropin-releasing factor-binding protein (Homo sapiens, UniProt P24387+Q13324); assay: activators of CRF receptor 2 with binding protein – uHTS hits, confirmation (AID 602473); type: functional; conditions: read-out: EC50_Mean
T1 sequence (Q13324 whole entry): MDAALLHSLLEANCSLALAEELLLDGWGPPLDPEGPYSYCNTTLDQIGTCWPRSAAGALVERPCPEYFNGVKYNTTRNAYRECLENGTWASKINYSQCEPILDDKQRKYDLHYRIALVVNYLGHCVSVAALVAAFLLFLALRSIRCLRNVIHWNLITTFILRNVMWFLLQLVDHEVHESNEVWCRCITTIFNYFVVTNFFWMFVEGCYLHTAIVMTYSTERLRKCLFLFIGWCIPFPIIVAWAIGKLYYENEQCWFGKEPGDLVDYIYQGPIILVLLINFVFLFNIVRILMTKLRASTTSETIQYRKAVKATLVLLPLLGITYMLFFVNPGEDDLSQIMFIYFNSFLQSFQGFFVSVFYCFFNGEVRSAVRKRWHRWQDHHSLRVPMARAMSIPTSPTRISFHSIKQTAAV
T1 sequence (P24387 whole entry): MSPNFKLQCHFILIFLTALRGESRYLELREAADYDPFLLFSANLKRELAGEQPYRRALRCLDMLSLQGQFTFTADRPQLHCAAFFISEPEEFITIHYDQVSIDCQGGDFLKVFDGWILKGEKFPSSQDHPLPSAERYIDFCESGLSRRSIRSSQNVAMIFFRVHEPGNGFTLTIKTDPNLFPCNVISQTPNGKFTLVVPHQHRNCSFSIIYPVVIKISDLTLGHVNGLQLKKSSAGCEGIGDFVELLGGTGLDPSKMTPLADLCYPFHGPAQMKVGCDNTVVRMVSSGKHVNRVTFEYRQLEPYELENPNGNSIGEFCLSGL

[8] = target: T1, Corticotropin-releasing factor receptor 2/Corticotropin-releasing factor-binding protein; assay: Dose Response confirmation of uHTS hits for small molecule antagonists of the CRF-binding protein and CRF-R2 receptor complex.; type: functional; conditions: read-out: IC50_Mean
Protein Tat = target: T2, Protein Tat (Human immunodeficiency virus type 1 group M subtype B (isolate HXB2)(HIV-1), UniProt P04608); type: functional;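 further: tat binding to TAR RNA read out by fluorescence polarization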
T2 sequence (P04608 whole entry): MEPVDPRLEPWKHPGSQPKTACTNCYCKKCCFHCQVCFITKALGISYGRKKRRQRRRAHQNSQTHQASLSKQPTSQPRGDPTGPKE

Kallikrein-7 = Kallikrein-7 (Homo sapiens, UniProt P49862); assay: Fluorescence Intensity-based biochemical primary high throughput dose response assay to identify activators of kallikrein-7 (K7) zymogen.
Sequence of Kallikrein-7 (P49862 whole entry): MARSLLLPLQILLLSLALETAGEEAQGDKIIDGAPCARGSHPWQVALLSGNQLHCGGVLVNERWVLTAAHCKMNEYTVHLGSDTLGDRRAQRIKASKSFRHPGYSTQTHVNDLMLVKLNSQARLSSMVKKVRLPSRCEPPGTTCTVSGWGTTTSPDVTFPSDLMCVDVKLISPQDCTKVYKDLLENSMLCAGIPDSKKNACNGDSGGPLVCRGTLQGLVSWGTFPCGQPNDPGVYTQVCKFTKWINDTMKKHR

H9c2 = assay: cells; type: functional, cell-based; conditions: Rattus norvegicus, H9c2, Myocardium;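 further: confirmatory concentration-response retest of ultra-high-throughput screening hits for modulation of myocardial damage; cell death induced by hydrogen peroxide oxidative stress; compound pretreatment for 60 min then peroxide exposure for 2 h; potency is for protecting the cells against peroxide damage rather than for killing them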
Cytochrome P450 2C9 = Cytochrome P450 2C9 (Homo sapiens, UniProt P11712)
Sequence of Cytochrome P450 2C9 (P11712 whole entry): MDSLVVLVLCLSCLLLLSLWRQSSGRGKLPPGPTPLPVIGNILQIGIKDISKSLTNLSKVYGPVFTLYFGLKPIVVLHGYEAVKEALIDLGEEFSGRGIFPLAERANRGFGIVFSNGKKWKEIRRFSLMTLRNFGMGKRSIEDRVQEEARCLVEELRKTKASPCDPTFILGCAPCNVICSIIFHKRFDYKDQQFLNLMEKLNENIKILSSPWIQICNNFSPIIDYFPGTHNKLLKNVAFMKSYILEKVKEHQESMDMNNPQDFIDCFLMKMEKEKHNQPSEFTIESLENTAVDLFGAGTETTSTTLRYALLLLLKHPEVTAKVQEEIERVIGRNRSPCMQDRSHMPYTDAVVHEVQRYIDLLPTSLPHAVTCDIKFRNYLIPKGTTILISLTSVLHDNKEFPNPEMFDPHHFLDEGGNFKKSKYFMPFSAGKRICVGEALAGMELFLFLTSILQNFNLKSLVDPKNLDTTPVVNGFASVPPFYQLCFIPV

Cytochrome P450 2D6 = Cytochrome P450 2D6 (Homo sapiens, UniProt P10635);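 further: CYP2D6 member of a cytochrome P450 panel assay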
Sequence of Cytochrome P450 2D6 (P10635 whole entry): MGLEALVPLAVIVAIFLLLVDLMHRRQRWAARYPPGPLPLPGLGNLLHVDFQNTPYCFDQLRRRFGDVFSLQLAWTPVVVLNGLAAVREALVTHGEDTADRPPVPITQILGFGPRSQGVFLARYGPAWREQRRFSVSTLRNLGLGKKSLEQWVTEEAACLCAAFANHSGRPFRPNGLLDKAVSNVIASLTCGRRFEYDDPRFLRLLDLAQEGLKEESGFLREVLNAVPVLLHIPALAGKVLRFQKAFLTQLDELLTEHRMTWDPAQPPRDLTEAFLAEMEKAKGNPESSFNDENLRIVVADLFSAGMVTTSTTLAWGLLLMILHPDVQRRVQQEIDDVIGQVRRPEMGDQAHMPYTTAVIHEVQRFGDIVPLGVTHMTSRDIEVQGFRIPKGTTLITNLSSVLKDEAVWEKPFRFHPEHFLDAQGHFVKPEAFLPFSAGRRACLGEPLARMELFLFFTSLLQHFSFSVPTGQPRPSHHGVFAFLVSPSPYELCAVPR

[9] = viability inhibitors of stage V gametocytes – luminescence, dose response (AID 1117278); type: functional, cell-based;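 further: gametocytes exposed to compound for 24 hours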
[10] = viability loss in human Jurkat cells – cell-based, luminescence, cytotoxicity control for P. falciparum gametocyte viability project, dose response (AID 1117277); type: functional;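 further: potency reflects loss of cellular ATP meaning fewer viable cells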
[11] = target: T3, Long-chain-fatty-acid--AMP ligase FadD28 (Mycobacterium tuberculosis, UniProt P9WQ59); assay: Fluorescence polarization aasay to screen for inhibitors that compete for the binding of FadD28 to a bisubstrate Measured in Biochemical System Using Plate Reader - 2147-01_Inhibitor_Dose_CherryPick_Activity.; type: functional, Mycobacterium tuberculosis H37Rv
T3 sequence (P9WQ59 whole entry): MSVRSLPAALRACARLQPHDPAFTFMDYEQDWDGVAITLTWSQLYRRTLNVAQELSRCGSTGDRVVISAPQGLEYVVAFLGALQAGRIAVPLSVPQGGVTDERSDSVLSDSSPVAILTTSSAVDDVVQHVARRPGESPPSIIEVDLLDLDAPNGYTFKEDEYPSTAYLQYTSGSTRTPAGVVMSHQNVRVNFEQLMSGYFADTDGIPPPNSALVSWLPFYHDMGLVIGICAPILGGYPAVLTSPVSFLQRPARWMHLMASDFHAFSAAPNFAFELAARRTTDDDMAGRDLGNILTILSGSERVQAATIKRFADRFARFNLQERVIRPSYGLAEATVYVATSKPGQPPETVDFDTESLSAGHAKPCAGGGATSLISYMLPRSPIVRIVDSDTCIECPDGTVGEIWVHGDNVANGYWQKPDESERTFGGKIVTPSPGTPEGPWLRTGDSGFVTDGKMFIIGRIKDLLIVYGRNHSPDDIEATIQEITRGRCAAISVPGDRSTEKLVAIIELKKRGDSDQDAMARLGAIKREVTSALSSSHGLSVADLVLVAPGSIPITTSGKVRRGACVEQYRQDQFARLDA

Sequence of Beta-galactosidase (Q8VNN2 whole entry, the tested form may be a part): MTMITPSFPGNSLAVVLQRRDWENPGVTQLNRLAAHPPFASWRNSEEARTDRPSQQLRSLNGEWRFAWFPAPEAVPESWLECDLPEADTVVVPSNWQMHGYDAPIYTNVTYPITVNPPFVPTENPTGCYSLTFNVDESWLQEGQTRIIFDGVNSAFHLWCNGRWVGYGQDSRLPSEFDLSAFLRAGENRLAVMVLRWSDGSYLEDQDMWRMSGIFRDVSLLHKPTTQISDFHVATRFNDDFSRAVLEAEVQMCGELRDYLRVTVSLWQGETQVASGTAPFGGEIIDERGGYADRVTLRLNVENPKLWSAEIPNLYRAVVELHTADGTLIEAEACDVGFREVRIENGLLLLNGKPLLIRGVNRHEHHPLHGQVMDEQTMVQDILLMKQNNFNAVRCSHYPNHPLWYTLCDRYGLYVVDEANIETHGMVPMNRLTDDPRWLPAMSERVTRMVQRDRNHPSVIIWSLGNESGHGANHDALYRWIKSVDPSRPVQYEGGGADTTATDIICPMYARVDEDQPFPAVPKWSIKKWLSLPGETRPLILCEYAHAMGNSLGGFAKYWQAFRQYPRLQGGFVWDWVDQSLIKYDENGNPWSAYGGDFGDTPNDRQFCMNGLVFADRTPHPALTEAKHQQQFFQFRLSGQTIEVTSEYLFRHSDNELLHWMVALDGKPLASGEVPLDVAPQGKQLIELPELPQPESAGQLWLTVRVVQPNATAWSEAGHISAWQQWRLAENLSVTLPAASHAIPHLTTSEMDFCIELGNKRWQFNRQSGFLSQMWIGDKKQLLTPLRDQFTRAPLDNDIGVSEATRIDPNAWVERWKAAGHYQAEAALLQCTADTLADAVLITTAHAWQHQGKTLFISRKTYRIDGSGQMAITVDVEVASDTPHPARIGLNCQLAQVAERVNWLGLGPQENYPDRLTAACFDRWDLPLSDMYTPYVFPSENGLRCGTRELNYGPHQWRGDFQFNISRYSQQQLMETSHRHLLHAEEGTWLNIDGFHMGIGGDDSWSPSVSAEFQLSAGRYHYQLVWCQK

COc1ccc(N2CCN(C(=O)c3cc(=O)c4cc(C)cc(C)c4o3)CC2)cc1
IC50 (Beta-galactosidase): > 80 µM (inactive)

Cc1oc(-c2cccc(Cl)c2)nc1CN1CCCC(C(=O)NC(C)c2ccc3c(c2)OCCO3)C1 (stereo not given)
AC50 [1]: 3.47 µM (active)
AC50 [2]: 3.92 µM (active)
AC50 [3]: 2.58 µM (active)
AC50 [4]: 4.68 µM (active)
AC50 [5]: 54.5 µM (active)

CCC(c1nnnn1C1CCCC1)N1CCN(Cc2ccccc2)CC1 (stereo not given)
IC50 [6]: > 20 µM (inactive)
EC50 [7]: > 53 µM (inactive)
IC50 [8]: < 0.368 µM (active)

Cc1ccc(N2CCN(c3ccc(C)cc3)C2c2ccccn2)cc1
IC50 (Protein Tat): > 100 µM (active)

CCN(CC(=O)Nc1c(F)cccc1F)C(=O)/C=C/c1ccc(C)cc1
IC50 (Beta-galactosidase): > 80 µM (inactive)

Cc1nc(Sc2ccccc2)c(C#N)cc1-c1ccccc1
IC50 [6]: > 20 µM (inactive)
EC50 [7]: > 53 µM (inactive)
IC50 [8]: < 0.368 µM (active)

O=c1c2ccccc2nc(/C=C/c2ccc(O)cc2)n1-c1ccc(O)cc1
EC50 (Kallikrein-7): 21.7 µM (inactive)
IC50 (H9c2): > 79 µM (inactive)

CCN1c2ccccc2-c2nc3ccccc3n2C1c1ccccn1 (stereo not given)
EC50 (Kallikrein-7): > 69.5 µM (inactive)

N#Cc1cccc(C(c2nnnn2C2CCCC2)N2CCCCCC2)c1 (stereo not given)
AC50 (Cytochrome P450 2C9): 35.5 µM (inconclusive)
IC50 [6]: > 20 µM (inactive)
EC50 [7]: > 53 µM (inactive)
IC50 [8]: 20.7 µM (active)
AC50 (Cytochrome P450 2D6): 11.2 µM (inconclusive)

CC(C)C1Oc2ccccc2N(CC(=O)N(Cc2ccccn2)C2CC2)C1=O (stereo not given)
IC50 [9]: > 109 µM (inactive)
IC50 [10]: > 83.3 µM (inactive)

CCc1nnc(NS(=O)(=O)c2ccc(NC(=O)Nc3ccc(OC)cc3)cc2)s1
AC50 [11]: 73.5 µM (active)
